# Patent US10800791B2, “Triazole ACC inhibitors and uses thereof” (Gilead Apollo, LLC, priority 2015, dated 2020)
# pIC50: −log10 of the molar value. Like-named read-outs stand apart in the source and are kept apart here.
# Legend:
# [1] = system: Fusarium moniliforme (Fm); test: Growth inhibition assay of fungal pathogens, Fm; type: cell-based; settings: for IC90: Fusarium verticillioides, 48 h, read-out: Concentration at 90% Inhibition Fm
# How it was run: (§1)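 Inhibition percentages reflect 48 h OD600 and visual scores relative to a 2% DMSO control. Test concentrations were 50, 10, 2 ppm or 2, 0.4, 0.08 ppm final, applied to spores in 17% V8 medium.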
# [2] = system: Fusarium virguliforme (Fv); test: Growth inhibition assay of fungal pathogens, Fv; type: cell-based; settings: 48 h
# How it was run: as §1
# [3] = system: Collectotrichum graminicola (Cg); test: Growth inhibition assay of fungal pathogens, Cg; type: cell-based; settings: 48 h
# How it was run: as §1
# Rhizoctonia solani (Rs) = test: Growth inhibition assay of fungal pathogens, Rs; type: cell-based; settings: 48 h
# C. parapsilosis = test: Antifungal Activity Assay (broth microtiter MIC), C. parapsilosis; type: cell-based, Candida parapsilosis; settings: Lodderomyces parapsilosis, ATCC22019, 48 h
# How it was run: (§2)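 Broth microdilution per CLSI M27-A3 in RPMI 1640+MOPS, inoculum 2.5×10^3 CFU/mL final from overnight Sabouraud dextrose agar cultures at 35° C. Compounds diluted from DMSO stock to 128 μg/mL in water. MIC read visually versus growth control at 48 h.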
# [4] = system: Phytophthora capsici (Pc); test: Growth inhibition assay of fungal pathogens, Pc; type: cell-based; settings: 48 h
# How it was run: as §1
# C. krusei = test: Antifungal Activity Assay (broth microtiter MIC), C. krusei; type: cell-based, Candida krusei; settings: Pichia kudriavzevii, ATCC6258, 48 h
# How it was run: as §2
# Septoria tritici (St) = test: Growth inhibition assay of fungal pathogens, St; type: cell-based; settings: Zymoseptoria tritici, 48 h
# How it was run: as §1
# C. albicans = test: Antifungal Activity Assay (broth microtiter MIC), C. albicans; type: cell-based, Candida albicans; settings: Candida albicans, ATCC90028, 48 h
# How it was run: as §2
# Diplodia maydis (Dm) = test: Growth inhibition assay of fungal pathogens, Dm; type: cell-based; settings: Stenocarpella maydis, 48 h
# How it was run: as §1
# human (hACC2) = human (hACC2) (Homo sapiens, UniProt O00763); test: In vitro ACC inhibition assay (ADP-Glo), hACC2; type: biochemical; settings: 5 nM ACC2, 20 μM ATP, 20 μM acetyl-CoA
# Experimental: The detailed procedure is as follows. […] 10 μL ADP glo reagent was added. […] 20 μL kinase detection reagent was added.
# [5] = Fusarium moniliforme, growth inhibition at 48 hours vs 2% DMSO control
# Sequence of human (hACC2) (O00763 whole entry): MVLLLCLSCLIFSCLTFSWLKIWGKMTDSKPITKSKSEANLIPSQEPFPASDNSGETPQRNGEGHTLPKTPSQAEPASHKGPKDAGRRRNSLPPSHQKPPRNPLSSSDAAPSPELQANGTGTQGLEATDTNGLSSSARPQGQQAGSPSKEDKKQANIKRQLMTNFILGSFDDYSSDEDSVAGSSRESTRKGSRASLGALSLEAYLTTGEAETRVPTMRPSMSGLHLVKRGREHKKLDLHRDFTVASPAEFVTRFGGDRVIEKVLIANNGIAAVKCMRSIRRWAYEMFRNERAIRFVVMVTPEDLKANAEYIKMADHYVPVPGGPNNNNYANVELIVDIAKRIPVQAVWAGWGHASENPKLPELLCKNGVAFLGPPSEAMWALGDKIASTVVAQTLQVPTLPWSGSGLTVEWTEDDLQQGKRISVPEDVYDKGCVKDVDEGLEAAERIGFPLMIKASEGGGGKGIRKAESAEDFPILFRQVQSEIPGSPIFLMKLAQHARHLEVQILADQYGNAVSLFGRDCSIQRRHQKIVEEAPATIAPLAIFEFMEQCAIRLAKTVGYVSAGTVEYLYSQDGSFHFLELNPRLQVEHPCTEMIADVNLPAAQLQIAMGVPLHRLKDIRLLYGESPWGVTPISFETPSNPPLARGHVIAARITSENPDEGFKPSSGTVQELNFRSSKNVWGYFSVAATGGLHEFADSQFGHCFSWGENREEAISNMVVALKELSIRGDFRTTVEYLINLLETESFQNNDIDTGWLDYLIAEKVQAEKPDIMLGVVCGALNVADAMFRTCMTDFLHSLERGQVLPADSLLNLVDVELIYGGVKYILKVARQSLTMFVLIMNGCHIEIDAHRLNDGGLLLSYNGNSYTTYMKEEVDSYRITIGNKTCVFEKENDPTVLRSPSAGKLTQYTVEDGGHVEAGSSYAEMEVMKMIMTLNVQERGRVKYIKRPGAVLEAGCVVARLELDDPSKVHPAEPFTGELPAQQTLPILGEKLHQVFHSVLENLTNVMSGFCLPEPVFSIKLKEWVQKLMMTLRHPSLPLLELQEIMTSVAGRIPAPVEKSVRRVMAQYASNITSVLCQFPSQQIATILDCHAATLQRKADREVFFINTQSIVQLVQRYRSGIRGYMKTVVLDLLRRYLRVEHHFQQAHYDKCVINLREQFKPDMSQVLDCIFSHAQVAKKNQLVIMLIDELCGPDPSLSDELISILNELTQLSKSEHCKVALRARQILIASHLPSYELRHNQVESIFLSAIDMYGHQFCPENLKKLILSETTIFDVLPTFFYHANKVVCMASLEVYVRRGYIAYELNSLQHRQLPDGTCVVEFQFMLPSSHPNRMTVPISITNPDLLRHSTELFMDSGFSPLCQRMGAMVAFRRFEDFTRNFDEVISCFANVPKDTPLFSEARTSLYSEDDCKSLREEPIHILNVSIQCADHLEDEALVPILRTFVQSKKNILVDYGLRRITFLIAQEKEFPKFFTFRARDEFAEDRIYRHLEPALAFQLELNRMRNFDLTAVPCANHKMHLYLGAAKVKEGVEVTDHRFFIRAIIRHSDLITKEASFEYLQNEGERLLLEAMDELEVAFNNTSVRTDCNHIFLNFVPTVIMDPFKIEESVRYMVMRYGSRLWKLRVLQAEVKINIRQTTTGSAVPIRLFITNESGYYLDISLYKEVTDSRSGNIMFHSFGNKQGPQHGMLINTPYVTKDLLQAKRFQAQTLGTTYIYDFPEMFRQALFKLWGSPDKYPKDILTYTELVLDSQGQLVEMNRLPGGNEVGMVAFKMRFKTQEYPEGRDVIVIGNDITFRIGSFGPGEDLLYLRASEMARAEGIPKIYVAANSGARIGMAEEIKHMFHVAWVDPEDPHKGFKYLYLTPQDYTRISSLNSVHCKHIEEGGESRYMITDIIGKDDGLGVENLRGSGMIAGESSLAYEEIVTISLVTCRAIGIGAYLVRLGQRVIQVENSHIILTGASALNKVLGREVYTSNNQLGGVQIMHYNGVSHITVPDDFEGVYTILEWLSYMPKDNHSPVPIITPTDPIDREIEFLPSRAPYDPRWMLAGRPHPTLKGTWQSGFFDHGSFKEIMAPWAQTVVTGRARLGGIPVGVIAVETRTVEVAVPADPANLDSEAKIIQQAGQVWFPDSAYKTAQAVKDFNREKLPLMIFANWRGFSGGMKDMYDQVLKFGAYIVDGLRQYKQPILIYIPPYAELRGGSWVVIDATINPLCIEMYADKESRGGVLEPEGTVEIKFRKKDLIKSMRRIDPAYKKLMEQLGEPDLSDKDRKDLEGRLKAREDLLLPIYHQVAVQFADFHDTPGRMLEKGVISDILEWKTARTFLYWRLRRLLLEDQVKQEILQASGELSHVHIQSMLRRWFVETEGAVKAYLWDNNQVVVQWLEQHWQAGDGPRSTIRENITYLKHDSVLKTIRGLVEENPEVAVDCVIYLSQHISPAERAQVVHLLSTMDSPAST
smiles,measurement,setting,value
"COc1ccc(F)cc1[C@H](Cn1c(=O)n(C(C)(C)C(=O)NC(C)C)c(=O)c2c(C)c(-n3nccn3)sc21)OC1CCC(=O)CC1 [Compound I-32, (R)-2-(1-(2-(5-fluoro-2-methoxyphenyl)-2-((4-oxocyclo-hexyl)oxy)ethyl)-5-methyl-2,4-dioxo-6-(2H-1,2,3-triazol-2-yl)-1,4-dihydro-thieno[2,3-d]pyrimidin-3(2H)-yl)-N-isopropyl-2-methylpropanamide]",Concentration at 90% Inhibition Fm,[1]; [5],AA (compound concentration of 0.08 ppm at 90% inhibition of fungal pathogens)
same,IC90,[1],0.08 µg/mL
same,IC90,"[2]; read-out: Concentration at 90% Inhibition Fv, Fusarium virguliforme, growth inhibition at 48 hours vs 2% DMSO control",0.4 µg/mL
same,IC90,"[2]; read-out: Concentration at 90% Inhibition Fv, Fusarium virguliforme, growth inhibition vs 2% DMSO control at 48 hours",0.4 µg/mL
same,IC90,"[3]; read-out: Concentration at 90% Inhibition Cg, Collectotrichum graminicola, growth inhibition at 48 hours vs 2% DMSO control",2 µg/mL
same,IC90,"[3]; read-out: Concentration at 90% Inhibition Cg, Collectotrichum graminicola, growth inhibition vs 2% DMSO control at 48 hours",2 µg/mL
same,IC90,"Rhizoctonia solani (Rs); read-out: Concentration at 90% Inhibition Rs, Rhizoctonia solani, mycelial plugs, growth inhibition at 48 hours vs 2% DMSO control",0.08 µg/mL
same,IC90,"Rhizoctonia solani (Rs); read-out: Concentration at 90% Inhibition Rs, Rhizoctonia solani, mycelial plugs, growth inhibition vs 2% DMSO control at 48 hours",0.08 µg/mL
same,MIC,"C. parapsilosis; read-out: MIC, C. parapsilosis ATCC 22019, Table 3a, 3 replicates, MIC recorded at 48 h",0.25 to 1 µg/mL
same,MIC,"C. parapsilosis; read-out: MIC, C. parapsilosis ATCC 22019, Table 3b (additional results), 3 replicates, MIC recorded at 48 h",0.25 to 1 µg/mL
same,IC90,"[4]; read-out: Concentration at 90% Inhibition Pc, Phytophthora capsici, growth inhibition at 48 hours vs 2% DMSO control",> 50 µg/mL
same,IC90,"[4]; read-out: Concentration at 90% Inhibition Pc, Phytophthora capsici, growth inhibition vs 2% DMSO control at 48 hours",> 50 µg/mL
same,MIC,"C. krusei; read-out: MIC, C. krusei ATCC 6258, Table 3a, 3 replicates, MIC recorded at 48 h",0.06 to 0.24 µg/mL
same,MIC,"C. krusei; read-out: MIC, C. krusei ATCC 6258, Table 3b (additional results), 3 replicates, MIC recorded at 48 h",0.06 to 0.249 µg/mL
same,IC90,"Septoria tritici (St); read-out: Concentration at 90% Inhibition St, Septoria tritici, growth inhibition at 48 hours vs 2% DMSO control",> 50 µg/mL
same,IC90,"Septoria tritici (St); read-out: Concentration at 90% Inhibition St, Septoria tritici, growth inhibition vs 2% DMSO control at 48 hours",> 50 µg/mL
same,MIC,"C. albicans; read-out: MIC, C. albicans ATCC 90028, Table 3a, 3 replicates, MIC recorded at 48 h",0.06 to 0.24 µg/mL
same,MIC,"C. albicans; read-out: MIC, C. albicans ATCC 90028, Table 3b (additional results), 3 replicates, MIC recorded at 48 h",0.06 to 0.249 µg/mL
same,IC90,"Diplodia maydis (Dm); read-out: Concentration at 90% Inhibition Dm, Diplodia maydis, growth inhibition at 48 hours vs 2% DMSO control",0.08 µg/mL
same,IC90,"Diplodia maydis (Dm); read-out: Concentration at 90% Inhibition Dm, Diplodia maydis, growth inhibition vs 2% DMSO control at 48 hours",0.08 µg/mL
same,pIC50,human (hACC2); Table 2a,8.00 to 8.30
same,pIC50,"human (hACC2); Table 2b, additional results",8.00 to 8.30
"COc1ccc(F)cc1[C@H](Cn1c(=O)n(C(C)(C)C(=O)N2CCCC2)c(=O)c2c(C)c(-n3nccn3)sc21)OC1CCC(=O)CC1 [Compound I-33, (R)-1-(2-(5-fluoro-2-methoxyphenyl)-2-((4-oxocyclo-hexyl)oxy)ethyl)-5-methyl-3-(2-methyl-1-oxo-1-(pyrrolidin-1-yl)propan-2-yl)-6-(2H-1,2,3-triazol-2-yl)thieno[2,3-d]pyrimidine-2,4(1H,3H)-dione]",IC90,[1]; [5],0.08 µg/mL
same,IC90,"[1]; Fusarium moniliforme, growth inhibition vs 2% DMSO control at 48 hours",0.08 µg/mL
same,IC90,"[2]; growth inhibition at 48 hours vs 2% DMSO control, read-out: Concentration at 90% Inhibition Fv",0.4 µg/mL
same,IC90,"[2]; growth inhibition vs 2% DMSO control at 48 hours, read-out: Concentration at 90% Inhibition Fv",0.4 µg/mL
same,IC90,"[3]; Collectotrichum graminicola, growth inhibition at 48 hours vs 2% DMSO control, read-out: Concentration at 90% Inhibition Cg",0.4 µg/mL
same,IC90,"[3]; Collectotrichum graminicola, growth inhibition vs 2% DMSO control at 48 hours, read-out: Concentration at 90% Inhibition Cg",0.4 µg/mL
same,IC90,"Rhizoctonia solani (Rs); mycelial plugs, growth inhibition at 48 hours vs 2% DMSO control, read-out: Concentration at 90% Inhibition Rs",0.4 µg/mL
same,IC90,"Rhizoctonia solani (Rs); mycelial plugs, growth inhibition vs 2% DMSO control at 48 hours, read-out: Concentration at 90% Inhibition Rs",0.4 µg/mL
same,MIC,"C. parapsilosis; Table 3a, ATCC 22019, 3 replicates, MIC recorded at 48 h, read-out: MIC, C. parapsilosis ATCC 22019",0.25 to 1 µg/mL
same,MIC,"C. parapsilosis; Table 3b (additional results), ATCC 22019, 3 replicates, MIC recorded at 48 h, read-out: MIC, C. parapsilosis ATCC 22019",1.01 to 2 µg/mL
same,IC90,"[4]; growth inhibition at 48 hours vs 2% DMSO control, read-out: Concentration at 90% Inhibition Pc",> 50 µg/mL
same,IC90,"[4]; growth inhibition vs 2% DMSO control at 48 hours, read-out: Concentration at 90% Inhibition Pc",> 50 µg/mL
same,MIC,"C. krusei; Table 3a, ATCC 6258, 3 replicates, MIC recorded at 48 h, read-out: MIC, C. krusei ATCC 6258",0.25 to 1 µg/mL
same,MIC,"C. krusei; Table 3b (additional results), ATCC 6258, 3 replicates, MIC recorded at 48 h, read-out: MIC, C. krusei ATCC 6258",0.25 to 1 µg/mL
same,IC90,"Septoria tritici (St); Septoria tritici, growth inhibition at 48 hours vs 2% DMSO control, read-out: Concentration at 90% Inhibition St",> 50 µg/mL
same,IC90,"Septoria tritici (St); Septoria tritici, growth inhibition vs 2% DMSO control at 48 hours, read-out: Concentration at 90% Inhibition St",> 50 µg/mL
same,MIC,"C. albicans; Table 3a, ATCC 90028, 3 replicates, MIC recorded at 48 h, read-out: MIC, C. albicans ATCC 90028",0.25 to 1 µg/mL
same,MIC,"C. albicans; Table 3b (additional results), ATCC 90028, 3 replicates, MIC recorded at 48 h, read-out: MIC, C. albicans ATCC 90028",0.25 to 1 µg/mL
same,IC90,"Diplodia maydis (Dm); Diplodia maydis, growth inhibition at 48 hours vs 2% DMSO control, read-out: Concentration at 90% Inhibition Dm",0.4 µg/mL
same,IC90,"Diplodia maydis (Dm); Diplodia maydis, growth inhibition vs 2% DMSO control at 48 hours, read-out: Concentration at 90% Inhibition Dm",0.4 µg/mL
same,pIC50,human (hACC2); Table 2a,7.40 to 8.00
same,pIC50,"human (hACC2); Table 2b, additional results",7.40 to 8.00
